Source: ChEMBL document CHEMBL1201862, “PubChem BioAssay data set” (2004)
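Values below derive from 48-hour exposures of cells grown in 96-well plates, with endpoints linearly interpolated between the two concentrations bracketing the appropriate inhibition level. The concentration for 50% growth inhibition is given as GI50.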 Active and inactive are the calls of the source. Cut-off read from the data, not from the text of the source: active = GI50 up to about 1.1 µM and inactive = higher.

Legend:
Experiment in all cases: growth of human tumour cells (NCI), 48 h
DLD-1 = test system: DLD-1
DMS-114 = test system: DMS-114
DMS-273 = test system: DMS-273
KM-20L2 = test system: KM-20L2
LXFL 529 = test system: LXFL 529
HOP-18 = test system: HOP-18
RXF 631 = test system: RXF 631
SNB-78 = test system: SNB-78
XF498 = test system: XF498

| Structure (SMILES) | GI50 (DLD-1) | GI50 (DMS-114) | GI50 (DMS-273) | GI50 (KM-20L2) | GI50 (LXFL 529) | GI50 (HOP-18) | GI50 (RXF 631) | GI50 (SNB-78) | GI50 (XF498) |
| --- | --- | --- | --- | --- | --- | --- | --- | --- | --- |
| CN1C(=O)CN2C(Cl)(Cl)C2(c2ccccc2)c2cc(Cl)ccc21 (stereo not drawn) | 93.5 µM (inactive) | > 100 µM (inactive) | 87.7 µM (inactive) | > 100 µM (inactive) | > 100 µM (inactive) |  |  |  |  |
| CC12CC3(C)CC(C)(C1)CC(N=[N+]=[N-])(C2)C3 | > 100 µM (inactive) | > 100 µM (inactive) | > 100 µM (inactive) |  | > 100 µM (inactive) | > 100 µM (inactive) | > 100 µM (inactive) | > 100 µM (inactive) | > 100 µM (inactive) |
| S=c1sc2cscc2s1 | 21 µM (inactive) | 22.8 µM (inactive) | 31.1 µM (inactive) | 27 µM (inactive) | 20.2 µM (inactive) | 20.7 µM (inactive) | 24.9 µM (inactive) | 30.5 µM (inactive) | 23.3 µM (inactive) |
| CC(=O)OCC1OC(n2cc(F)c(=O)[nH]c2=O)C(N)C(OC(C)=O)C1OC(C)=O (stereo not drawn) | > 100 µM (inactive) | > 100 µM (inactive) | > 100 µM (inactive) | > 100 µM (inactive) |  | > 100 µM (inactive) |  | > 100 µM (inactive) | > 100 µM (inactive) |
| O=C1CSc2sc(=S)sc2S1 | > 100 µM (inactive) | > 100 µM (inactive) | 95.9 µM (inactive) | > 100 µM (inactive) |  | > 84.3 µM (inactive) |  | > 63.7 µM (inactive) | > 100 µM (inactive) |
| Cc1[nH]c(=O)[nH]c(=O)c1/C=C/C(=O)NC(CO)C[S+]([O-])C[S+](C)[O-] (stereo not drawn) | 20.4 µM (inactive) | 11.1 µM (inactive) | 21 µM (inactive) | 36.9 µM (inactive) |  | 59.3 µM (inactive) |  | 11.7 µM (inactive) | 1.74 µM (inactive) |
| COc1ccc(CC/N=C2\CCC(C(=O)NCCc3ccc(OC)c(OC)c3)N2)cc1OC (stereo not drawn) | > 100 µM (inactive) | > 100 µM (inactive) | > 100 µM (inactive) | > 100 µM (inactive) | > 100 µM (inactive) | > 100 µM (inactive) | > 100 µM (inactive) | > 100 µM (inactive) | > 100 µM (inactive) |
| CN(C)C(=S)/N=c1\ss/c(=N\S(=O)(=O)c2ccccc2)n1-c1ccccc1 | 13.5 µM (inactive) | 2.08 µM (inactive) | 12.9 µM (inactive) |  | 0.0481 µM (active) | 32.6 µM (inactive) | > 100 µM (inactive) | 29 µM (inactive) | 19.5 µM (inactive) |
| O=C1C(c2ccc(C3=[N+]([O-])c4cc([N+](=O)[O-])ccc4C3=O)cc2)=[N+]([O-])c2cc([N+](=O)[O-])ccc21 | > 10 µM (inactive) | > 10 µM (inactive) | > 10 µM (inactive) | > 10 µM (inactive) | > 10 µM (inactive) | > 100 µM (inactive) |  | 8.91 µM (inactive) | > 10 µM (inactive) |
| COc1ccc(C2C(N)=NCC2c2ccccn2)cc1 (stereo not drawn) | > 100 µM (inactive) | > 100 µM (inactive) |  | > 100 µM (inactive) | > 100 µM (inactive) | 30.1 µM (inactive) | > 100 µM (inactive) | > 100 µM (inactive) | > 100 µM (inactive) |
| COc1ccc(C2=C(Cl)c3cc(OC)c(OC)cc3C2Cl)cc1 (stereo not drawn) |  | 14.1 µM (inactive) | 17.2 µM (inactive) | 15.9 µM (inactive) | 13.2 µM (inactive) | 20.3 µM (inactive) |  | 17.9 µM (inactive) | < 0.01 µM (active) |
